Results reported in patent publication US20240024494A1, “SMALL-MOLECULE CONJUGATE AND USE THEREOF” (SHANGHAI MEWSGEN BIOTECHNOLOGY CO., LTD, priority 2020, published 2024).

Experiments:
[1] = tested on: MGC803 (human gastric carcinoma cells); format: cell-based; details: 72 h
Description: A part of the compounds of the examples of the present disclosure were subjected to a tumor cell proliferation inhibition test by using an MTT method (e.g. Pharmacological Research Method of New Drug, 2007: 242-243, edited by Lu Qiujun).
A cell strain was selected from KYSE-150 (human esophageal squamous carcinoma cells), MGC803 (human gastric carcinoma cells), and SHG44 (human glioma cells), and frozen and passaged by a pharmacological laboratory of Shanghai Institute of Pharmaceutical Industry. A culture solution was DMEM+10% FBS+double antibody.
(§1) In-vitro activity test: 100 μL of a cell suspension at a concentration of 4-5×10^4/mL was added to each well of a 96-well plate, and placed in a 5% CO2 incubator at 37° C. After 24 h, a sample solution was added at 10 μL/well, double duplicate wells were set, and a reaction was performed at 37° C. with 5% CO2 for 72 h. 20 μL of 5 mg/ml of an MTT solution was added into each well and reacted for 4 h, a dissolving solution was added at 100 μL/well, the mixture was placed in an incubator, and after dissolution, an OD value at 570 nm was measured with a full-wavelength multifunctional microplate reader. An inhibition rate (IR) and a median inhibitory concentration (IC50) were calculated by using an Excel software.
The inhibition rate (IR %) of the drug on cell growth was calculated according to the following equation: […]

[2] = tested on: tumor cell strains (colon cancer, pancreatic cancer, esophageal squamous carcinoma, gastric cancer, glioma); experiment: Summary of in-vitro proliferation inhibition on tumor cell strains (Examples 19-21); format: cell-based, human
Description: (§2) A part of the compounds prepared in the examples of the present disclosure were subjected to a tumor cell proliferation inhibition test by using a CCK-8 method. A cell line HCT116 (human colon carcinoma cells) and SW1990 (human pancreatic carcinoma cells) were purchased from Shanghai Meixuan Technology Co., Ltd. Samples (a part of the compounds prepared in the examples) were dissolved in DMSO (Merck), prepared into a concentration of 10 mM, and finally triply diluted in DMEM or McCoy's 5A 1640 medium to 8 concentration gradients. A cell culture solution was collected when a cell culture met a test requirement, 10 μL of the cell culture solution was uniformly coated on a cell counting plate, cells were counted for 3 times under a microscope, and a cell density was calculated by taking an average value; and a 96-well plate (Corning, #3599) was taken, 200 μL of the cell culture solution was added into each well for cell inoculation at a cell concentration of 6×10^3 cells per well, and the inoculated 96-well plate was incubated in a cell incubator containing 5% CO2 at 37° C. for 24 h. An old culture medium was removed by suction, 200 μL of the triply diluted sample DMEM or McCoy's 5A 1640 medium at an initial concentration of 10 μmol/L was added to each well, the DMSO content was controlled to be 1%, three duplicate wells were set, PBS was used as a blank control, and the plate was incubated in the incubator for 72 h. The original DMEM or McCoy's 5A 1640 medium in the 96-well plate and a PBS buffer in a final row were sucked out, a prepared CCK-8 solution (90% DMEM or McCoy's 5A 1640 medium+10% CCK-8) was added, the mixture was incubated in an incubator, and an absorbance was read by using a Biotek microplate reader. Cell growth inhibition rate IC %=(blank control well OD value−administration well OD value)/blank control well OD value×100%.
as §1
A part of the compounds prepared in the examples of the present disclosure were subjected to a tumor cell proliferation inhibition test by using a CCK-8 method. Cell lines HCT116 (human colon cancer cells), MGC803 (human gastric cancer cells), and MIA PACA-2 (human pancreatic cancer cells) were purchased from Shanghai Meixuan Technology Co., Ltd. Samples (a part of the compounds prepared in the examples) were dissolved in DMSO (Merck), prepared into a concentration of 10 mM, and finally triply diluted in DMEM or McCoy's 5A 1640 medium to 8 concentration gradients. A cell culture solution was collected when a cell culture met a test requirement, 10 μL of the cell culture solution was uniformly coated on a cell counting plate, cells were counted for 3 times under a microscope, and a cell density was calculated by taking an average value; and a 96-well plate (Corning, #3599) was taken, 200 μL of the cell culture solution was added into each well for cell inoculation at a cell concentration of 6×10^3 cells per well, and the inoculated 96-well plate was incubated in a cell incubator containing 5% CO2 at 37° C. for 24 h. […]

hERG potassium channel = hERG potassium channel (Homo sapiens, UniProt Q12809); experiment: cell-based
Description: CHO-hERG cells were cultured in a 175-cm^2 culture flask. After a cell density reached a culture solution was removed, and the cells were washed once with 7 mL of phosphate buffered saline (PBS) and digested with 3 mL of detachin. After the complete digestion, 7 mL of a culture solution was added for neutralization, the mixture was centrifuged, a supernatant was sucked away, and then 5 mL of the culture solution was added for resuspension so as to ensure that the cell density was 2-5×10^6/mL.
Forming processes of single-cell high-impedance sealing and whole-cell mode were both automatically completed by a Qpatch instrument. After a whole-cell recording mode was obtained, cells were clamped at −80 millivolts. Before a depolarization stimulation of +40 millivolt for 5 seconds was given, a preset voltage of −50 millivolts was firstly given for 50 milliseconds, then repolarization was performed to −50 millivolt and maintained for 5 seconds, and then the voltage returned to −80 millivolts. […] At least 3 cells (n≥3) were tested per concentration.
20 mM of a compound stock was diluted in DMSO, and 10 μL of 20 mM of the compound stock was added to 20 μL of a DMSO solution and triply serially diluted to 6 DMSO concentrations. […] Experimental data was analyzed by a GraphPad Prism 5.0 software.

[3] = tested on: HCT116 (human colon cancer cells); experiment: Tumor cell proliferation inhibition test, CCK-8 method (Example 21); format: cell-based; details: Homo sapiens, HCT-116; CCK-8, 72 h, Table 3; read-out: IC50 HCT116
Description: as §2, with “method. Cell lines” for “method. A cell line”, “colon cancer cells), MGC803 (human gastric cancer cells),” for “colon carcinoma cells)”, “and MIA PACA-2” for “and SW1990”, “pancreatic cancer” for “pancreatic carcinoma”

[4] = tested on: MGC803 (human gastric cancer cells); experiment: as above; format: cell-based; details: Homo sapiens, MGC-803; CCK-8, 72 h, Table 3; read-out: IC50 MGC803
Description: as §2, with “method. Cell lines” for “method. A cell line”, “colon cancer cells), MGC803 (human gastric cancer cells),” for “colon carcinoma cells)”, “and MIA PACA-2” for “and SW1990”, “pancreatic cancer” for “pancreatic carcinoma”

[5] = tested on: MIA PACA-2 (human pancreatic cancer cells); experiment: as above; format: cell-based; details: Homo sapiens, MIA PaCa-2; CCK-8, 72 h, Table 3; read-out: IC50 MIA PACA-2
Description: as §2, with “method. Cell lines” for “method. A cell line”, “colon cancer cells), MGC803 (human gastric cancer cells),” for “colon carcinoma cells)”, “and MIA PACA-2” for “and SW1990”, “pancreatic cancer” for “pancreatic carcinoma”

hERG potassium channel, sequence (Q12809 whole entry): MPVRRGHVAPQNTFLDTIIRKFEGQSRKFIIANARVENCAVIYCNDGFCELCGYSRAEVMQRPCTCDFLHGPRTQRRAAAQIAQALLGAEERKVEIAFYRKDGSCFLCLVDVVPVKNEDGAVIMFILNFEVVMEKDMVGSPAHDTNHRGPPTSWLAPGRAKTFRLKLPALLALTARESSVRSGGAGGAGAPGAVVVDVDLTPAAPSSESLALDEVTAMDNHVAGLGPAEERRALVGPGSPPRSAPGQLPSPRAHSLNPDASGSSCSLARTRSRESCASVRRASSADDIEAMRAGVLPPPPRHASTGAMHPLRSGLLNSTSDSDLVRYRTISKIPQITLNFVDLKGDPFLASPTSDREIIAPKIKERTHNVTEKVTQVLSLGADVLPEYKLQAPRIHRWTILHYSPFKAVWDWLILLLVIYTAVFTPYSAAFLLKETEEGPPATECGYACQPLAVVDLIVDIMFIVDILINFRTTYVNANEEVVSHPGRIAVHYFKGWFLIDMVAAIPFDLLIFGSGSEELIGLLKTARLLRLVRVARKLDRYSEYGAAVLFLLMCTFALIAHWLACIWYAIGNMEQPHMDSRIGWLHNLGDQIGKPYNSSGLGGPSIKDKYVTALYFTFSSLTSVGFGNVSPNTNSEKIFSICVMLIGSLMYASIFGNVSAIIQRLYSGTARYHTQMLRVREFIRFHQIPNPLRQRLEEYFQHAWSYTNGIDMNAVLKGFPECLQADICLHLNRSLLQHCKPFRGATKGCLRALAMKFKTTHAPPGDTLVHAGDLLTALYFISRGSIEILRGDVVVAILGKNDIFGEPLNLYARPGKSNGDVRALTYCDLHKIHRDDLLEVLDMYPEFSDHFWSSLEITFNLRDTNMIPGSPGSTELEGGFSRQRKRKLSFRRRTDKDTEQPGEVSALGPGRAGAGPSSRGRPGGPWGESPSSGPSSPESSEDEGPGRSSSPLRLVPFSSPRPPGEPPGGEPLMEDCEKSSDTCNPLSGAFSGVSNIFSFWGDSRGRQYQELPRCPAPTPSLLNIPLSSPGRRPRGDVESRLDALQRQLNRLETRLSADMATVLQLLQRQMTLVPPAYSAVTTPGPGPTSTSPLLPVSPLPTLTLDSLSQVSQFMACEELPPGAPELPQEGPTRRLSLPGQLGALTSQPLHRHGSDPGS

IC50 [3] | IC50 [4] | IC50 [5] | SMILES | IC50 [1] | Proliferation inhibition activities IC50 on most tumor cell strains (in words) [2] | IC50 (hERG potassium channel)
– | – | – | COc1cc(C(=O)NCCOCCOCCOCCOCCC(=O)N[C@@H](C(=O)N[C@@H](CCCNC(N)=O)C(=O)Nc2ccc(COC(=O)N3CCN(C(=O)O[C@H]4CC[C@@]5(C)[C@H](CC[C@@H]6[C@@H]5[C@H](O)C(=O)[C@]5(C)[C@@H](c7ccc(=O)oc7)CC[C@]65O)C4)CC3)cc2)C(C)C)ccc1NC(=O)[C@@H]1N[C@@H](CC(C)(C)C)[C@](C#N)(c2ccc(Cl)cc2F)[C@H]1c1cccc(Cl)c1F [Compound I-1] | 9 nM | between several to hundreds of nanomoles | > 40000 nM
110 nM | 1090 nM | > 10000 nM | COc1cc(C(=O)O)ccc1NC(=O)[C@@H]1N[C@@H](CC(C)(C)C)[C@](C#N)(c2ccc(Cl)cc2F)[C@H]1c1cccc(Cl)c1F [Idasanutlin, reference compound] | – | – | –
